Among the data in US9802927B2, “Oxadiazine compounds and methods of use thereof” (Denali Therapeutics, Inc., priority 2015, dated 2017) are EC50 values, retold here.

One may read the EC50 as the concentration at which the effect is half-maximal.

This test has as its system Aβ42. Kind of test: In vitro cell screening assay in H4 cells expressing human APP751: Aβ42 by sandwich ELISA. The format is cell-based. Conditions: compounds 0.003-10 μM, incubated overnight (16-18 h), sandwich ELISA of supernatant. As for the experimental part: Human neuroglioma H4 cells were transfected with a pcDNA3.1 plasmid expressing human wild type APP751 cDNA and a stable cell line was generated using G418 selection. Cells were plated at 15,000 cells/well in Costar 96-well plates and placed at 37° C. and 5% CO2. Six hours after plating, cells were washed three times with Pro293™ chemically defined medium, followed by addition of compounds (0.003-10 μM, final DMSO concentration of 0.33%). Plates were incubated overnight (16-18 h) and supernatant was removed for quantification of Aβ peptides by sandwich ELISA. Cytotoxicity was evaluated using Cell-Titer 96W AQueous One Solution Cell Proliferation Assay according to the manufacturer's protocol.
Aβ peptide levels were quantified by sandwich ELISA. 96-well plates were coated with C-terminal specific Aβ antibodies recognizing either Aβ37, Aβ38, Aβ40, Aβ42, Aβ43 or a N-terminal specific Aβ antibody to detect Aβ 1-x. Plates were then blocked overnight at 4° C. with 1% bovine serum albumin (BSA) in PBS-T. Plates were washed and 100 μl of cultured cell supernatant or synthetic Aβ peptide standards and a detection antibody (4G8-HRP) were applied to the blocked plate and incubated overnight at 4° C. The next day, wells were washed before the addition of detection substrate (TMB peroxidase). Plates were then read for absorbance at 450 nm on a Molecular Devices SpectraMax M5e Microplate Reader.
Compound-treated samples were normalized to samples treated with DMSO alone (no inhibition) and to samples treated with DAPT. EC50 values were calculated from values reported as percent of DMSO controls using nonlinear regression, based on a sigmoidal dose response (variable slope) model. GraphPAD software from Prism used for calculation.
(In general: In an ELISA, binding on a coated surface is turned into a signal by an enzyme label.)
Take `COc1nc(C2=NOCC(c3cc4cccc(C)c4o3)N2)ccc1-n1cnc(C)c1` (single isomer, unassigned) [Example 7A, 3-(6-Methoxy-5-(4-methyl-1H-imidazol-1-yl)pyridin-2-yl)-5-(7-methylbenzofuran-2-yl)-5,6-dihydro-4H-1,2,4-oxadiazine]: the EC50 is above 3000 nM.
In the case of `COc1nc(C2=NOCC(c3cc4cccc(C)c4o3)N2)ccc1-n1cnc(C)c1` (single isomer, unassigned) [Example 7B, 3-(6-Methoxy-5-(4-methyl-1H-imidazol-1-yl)pyridin-2-yl)-5-(7-methylbenzofuran-2-yl)-5,6-dihydro-4H-1,2,4-oxadiazine], the midpoint of the response, the EC50, lay at 23.3 nM. This lies in the double-digit nanomolar range.
The figure for `COc1nc(C2=NOCC(c3ccc(Cl)cc3C)N2C)ccc1-n1cnc(C)c1` (single isomer, unassigned) [Example 27A, 5-(4-chloro-2-methylphenyl)-3-(6-methoxy-5-(4-methyl-1H-imidazol-1-yl)pyridin-2-yl)-4-methyl-5,6-dihydro-4H-1,2,4-oxadiazine] is 2180 nM.
`COc1nc(C2=NOCC(c3ccc(Cl)cc3C)N2C)ccc1-n1cnc(C)c1` (single isomer, unassigned) [Example 27B, 5-(4-chloro-2-methylphenyl)-3-(6-methoxy-5-(4-methyl-1H-imidazol-1-yl)pyridin-2-yl)-4-methyl-5,6-dihydro-4H-1,2,4-oxadiazine] showed an EC50 of 61.3 nM.
The figure for `COc1nc(C2=NOCC(c3ccccc3)N2)ccc1-n1cnc(C)c1` (single isomer, unassigned) [Example 36A, 3-(6-methoxy-5-(4-methyl-1H-imidazol-1-yl)pyridin-2-yl)-5-phenyl-5,6-dihydro-4H-1,2,4-oxadiazine] is 2740 nM.
For the compound `COc1nc(C2=NOCC(c3ccccc3)N2)ccc1-n1cnc(C)c1` (single isomer, unassigned) [Example 36B, 3-(6-methoxy-5-(4-methyl-1H-imidazol-1-yl)pyridin-2-yl)-5-phenyl-5,6-dihydro-4H-1,2,4-oxadiazine], the concentration giving a half-maximal response (EC50) came out at 97 nM. This EC50 is about 28-fold lower than that of the compound before.
As for `COc1nc(C2=NOCC(c3coc4ccccc34)N2)ccc1-n1cnc(C)c1` (single isomer, unassigned) [Example 38A, 5-(benzofuran-3-yl)-3-(6-methoxy-5-(4-methyl-1H-imidazol-1-yl)pyridin-2-yl)-5,6-dihydro-4H-1,2,4-oxadiazine], the figure is above 3000 nM; as for `COc1nc(C2=NOCC(c3coc4ccccc34)N2)ccc1-n1cnc(C)c1` (single isomer, unassigned) [Example 38B, 5-(benzofuran-3-yl)-3-(6-methoxy-5-(4-methyl-1H-imidazol-1-yl)pyridin-2-yl)-5,6-dihydro-4H-1,2,4-oxadiazine], 22.4 nM.
`COc1nc(C2=NOCC(c3ccc(F)cc3)N2)ccc1-n1cnc(C)c1` (single isomer, unassigned) [Example 40A, 5-(4-fluorophenyl)-3-(6-methoxy-5-(4-methyl-1H-imidazol-1-yl)pyridin-2-yl)-5,6-dihydro-4H-1,2,4-oxadiazine] showed an EC50 above 3000 nM.
`COc1nc(C2=NOCC(c3ccc(F)cc3)N2)ccc1-n1cnc(C)c1` (single isomer, unassigned) [Example 40B, 5-(4-fluorophenyl)-3-(6-methoxy-5-(4-methyl-1H-imidazol-1-yl)pyridin-2-yl)-5,6-dihydro-4H-1,2,4-oxadiazine]: the EC50 worked out at 59.5 nM.
Take `COc1nc(C2=NOCC(c3ccc(Cl)cc3)N2)ccc1-n1cnc(C)c1` (single isomer, unassigned) [Example 42A, 5-(4-chlorophenyl)-3-(6-methoxy-5-(4-methyl-1H-imidazol-1-yl)pyridin-2-yl)-5,6-dihydro-4H-1,2,4-oxadiazine]: the EC50 was above 3000 nM.
The figure for `COc1nc(C2=NOCC(c3ccc(Cl)cc3)N2)ccc1-n1cnc(C)c1` (single isomer, unassigned) [Example 42B, 5-(4-chlorophenyl)-3-(6-methoxy-5-(4-methyl-1H-imidazol-1-yl)pyridin-2-yl)-5,6-dihydro-4H-1,2,4-oxadiazine] is 28.3 nM; for `COc1nc(C2=NOCC(c3ccc(F)c(C(F)(F)F)c3)N2)ccc1-n1cnc(C)c1` (single isomer, unassigned) [Example 44A, 5-(4-fluoro-3-(trifluoromethyl)phenyl)-3-(6-methoxy-5-(4-methyl-1H-imidazol-1-yl)pyridin-2-yl)-5,6-dihydro-4H-1,2,4-oxadiazine] it is above 3000 nM.
As for `COc1nc(C2=NOCC(c3ccc(F)c(C(F)(F)F)c3)N2)ccc1-n1cnc(C)c1` (single isomer, unassigned) [Example 44B, 5-(4-fluoro-3-(trifluoromethyl)phenyl)-3-(6-methoxy-5-(4-methyl-1H-imidazol-1-yl)pyridin-2-yl)-5,6-dihydro-4H-1,2,4-oxadiazine], a half-maximal effect (EC50) was put at 21.6 nM.
With `COc1nc(C2=NOCC(c3c[nH]c4ccccc34)N2)ccc1-n1cnc(C)c1` (single isomer, unassigned) [Example 47A, 5-(1H-indol-3-yl)-3-(6-methoxy-5-(4-methyl-1H-imidazol-1-yl)pyridin-2-yl)-5,6-dihydro-4H-1,2,4-oxadiazine], the concentration for a half-maximal effect (EC50) was 136 nM.
As for `COc1nc(C2=NOCC(c3c[nH]c4ccccc34)N2)ccc1-n1cnc(C)c1` (single isomer, unassigned) [Example 47B, 5-(1H-indol-3-yl)-3-(6-methoxy-5-(4-methyl-1H-imidazol-1-yl)pyridin-2-yl)-5,6-dihydro-4H-1,2,4-oxadiazine], the figure is 23.1 nM; as for `COc1nc(C2=NOCC(c3ccc(C(F)(F)F)c(F)c3)N2)ccc1-n1cnc(C)c1` (single isomer, unassigned) [Example 121A, 5-(3-fluoro-4-(trifluoromethyl)phenyl)-3-(6-methoxy-5-(4-methyl-1H-imidazol-1-yl)pyridin-2-yl)-5,6-dihydro-4H-1,2,4-oxadiazine], above 3000 nM; as for `COc1nc(C2=NOCC(c3ccc(C(F)(F)F)c(F)c3)N2)ccc1-n1cnc(C)c1` (single isomer, unassigned) [Example 121B, 5-(3-fluoro-4-(trifluoromethyl)phenyl)-3-(6-methoxy-5-(4-methyl-1H-imidazol-1-yl)pyridin-2-yl)-5,6-dihydro-4H-1,2,4-oxadiazine], 21.4 nM.
`COc1nc(C2=NOCC(c3ccc(F)cc3F)N2)ccc1-n1cnc(C)c1` (single isomer, unassigned) [Example 129A, 5-(2,4-difluorophenyl)-3-(6-methoxy-5-(4-methyl-1H-imidazol-1-yl)pyridin-2-yl)-5,6-dihydro-4H-1,2,4-oxadiazine] gave an EC50 of 2780 nM.
As for `COc1nc(C2=NOCC(c3ccc(F)cc3F)N2)ccc1-n1cnc(C)c1` (single isomer, unassigned) [Example 129B, 5-(2,4-difluorophenyl)-3-(6-methoxy-5-(4-methyl-1H-imidazol-1-yl)pyridin-2-yl)-5,6-dihydro-4H-1,2,4-oxadiazine], the figure is 128 nM.
Consider `CCC1CON=C(c2ccc(-n3cnc(C)c3)c(OC)n2)N1` (single isomer, unassigned) [Example 133A, 5-ethyl-3-(6-methoxy-5-(4-methyl-1H-imidazol-1-yl)pyridin-2-yl)-5,6-dihydro-4H-1,2,4-oxadiazine], for which the EC50 is above 3000 nM.
Take `CCC1CON=C(c2ccc(-n3cnc(C)c3)c(OC)n2)N1` (single isomer, unassigned) [Example 133B, 5-ethyl-3-(6-methoxy-5-(4-methyl-1H-imidazol-1-yl)pyridin-2-yl)-5,6-dihydro-4H-1,2,4-oxadiazine]: the EC50 worked out at 728 nM.
The figure for `COc1nc(C2=NOCC(C3CC3)N2)ccc1-n1cnc(C)c1` (single isomer, unassigned) [Example 134A, 5-cyclopropyl-3-(6-methoxy-5-(4-methyl-1H-imidazol-1-yl)pyridin-2-yl)-5,6-dihydro-4H-1,2,4-oxadiazine] is above 3000 nM; for `COc1nc(C2=NOCC(C3CC3)N2)ccc1-n1cnc(C)c1` (single isomer, unassigned) [Example 134B, 5-cyclopropyl-3-(6-methoxy-5-(4-methyl-1H-imidazol-1-yl)pyridin-2-yl)-5,6-dihydro-4H-1,2,4-oxadiazine] it is 1100 nM.
Regarding `COc1nc(C2=NOCC(c3ccccc3Cl)N2)ccc1-n1cnc(C)c1` (single isomer, unassigned) [Example 136A, 5-(2-chlorophenyl)-3-(6-methoxy-5-(4-methyl-1H-imidazol-1-yl)pyridin-2-yl)-5,6-dihydro-4H-1,2,4-oxadiazine], the midpoint of the response, the EC50, lay at 143 nM.
In turn, `COc1nc(C2=NOCC(c3ccccc3Cl)N2)ccc1-n1cnc(C)c1` (single isomer, unassigned) [Example 136B, 5-(2-chlorophenyl)-3-(6-methoxy-5-(4-methyl-1H-imidazol-1-yl)pyridin-2-yl)-5,6-dihydro-4H-1,2,4-oxadiazine] registered an EC50 of 775 nM.
Consider `COc1nc(C2=NOCC(CC3CC3)N2)ccc1-n1cnc(C)c1` (single isomer, unassigned) [Example 159A, 5-(cyclopropylmethyl)-3-(6-methoxy-5-(4-methyl-1H-imidazol-1-yl)pyridin-2-yl)-5,6-dihydro-4H-1,2,4-oxadiazine], for which the EC50 was above 3000 nM.
